Test results as given in publication PMC2918268 (Biochemical pharmacology, 2010).

What was measured:
Assay in all cases: cell-free TR-FRET co-activator peptide displacement
Type in all cases: binding
Settings in all cases: read-out: EC50
ERβ = ERβ (Homo sapiens, UniProt Q92731)
[1] = biological target: T1, estrogen-related receptor α (ERRα) (Homo sapiens, UniProt P11474)
T1 sequence (P11474 193-423 limits assumed): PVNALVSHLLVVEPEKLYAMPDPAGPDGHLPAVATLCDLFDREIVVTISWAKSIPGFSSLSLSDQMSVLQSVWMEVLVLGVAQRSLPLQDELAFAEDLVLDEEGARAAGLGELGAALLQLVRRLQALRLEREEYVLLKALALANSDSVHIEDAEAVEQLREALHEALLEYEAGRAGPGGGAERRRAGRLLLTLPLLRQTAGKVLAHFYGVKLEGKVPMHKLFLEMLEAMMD

ERα = biological target: T2, ERα (Homo sapiens, UniProt P03372)
T2 sequence (P03372 311-547 limits assumed): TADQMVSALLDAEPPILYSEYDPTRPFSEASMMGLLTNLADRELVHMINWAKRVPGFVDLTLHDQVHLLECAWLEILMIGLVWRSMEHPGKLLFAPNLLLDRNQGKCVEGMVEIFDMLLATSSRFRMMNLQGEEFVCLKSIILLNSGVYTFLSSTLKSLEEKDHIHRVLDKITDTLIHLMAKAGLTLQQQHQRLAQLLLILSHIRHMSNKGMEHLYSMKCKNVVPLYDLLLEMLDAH

ERβ, sequence (Q92731 264-498 limits assumed): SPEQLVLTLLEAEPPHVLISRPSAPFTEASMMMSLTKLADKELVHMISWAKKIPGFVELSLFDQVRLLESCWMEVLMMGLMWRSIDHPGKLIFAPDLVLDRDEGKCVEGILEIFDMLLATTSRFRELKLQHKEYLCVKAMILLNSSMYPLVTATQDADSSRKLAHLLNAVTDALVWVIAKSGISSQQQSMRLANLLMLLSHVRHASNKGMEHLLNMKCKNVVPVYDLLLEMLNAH

C[C@@H]1Cc2cc(O)ccc2[C@H]2CC[C@]3(C)/C(=C/COCCN(C)C)CC[C@H]3[C@H]12 [SR16388, 21-[2-(N,N-dimethylamino)ethyl]oxy-7a-methyl-19-norpregna-1,3,5(10),17(20)-tetraen-3-ol]
IC50 (ERβ): 0.5 ± 0.2 µM
IC50 [1]: 0.7 ± 0.1 µM
IC50 (ERα): 0.2 ± 0.2 µM
